Assays:
[1] = target: Mitogen-activated protein kinase 10 (Homo sapiens, UniProt P53779); assay: Inhibition of recombinant JNK3 after 60 mins by TR-FRET assay
[2] = target: Mitogen-activated protein kinase 9 (Homo sapiens, UniProt P45984); assay: Inhibition of recombinant JNK2 after 60 mins by TR-FRET assay
[3] = target: Mitogen-activated protein kinase 8 (Homo sapiens, UniProt P45983); assay: Inhibition of recombinant JNK1 after 60 mins by TR-FRET assay
[4] = target: Mitogen-activated protein kinase 1 (Homo sapiens, UniProt P28482); assay: Inhibition of recombinant ERK2 after 60 mins by TR-FRET assay
Mitogen-activated protein kinase 1, sequence (P28482 whole entry): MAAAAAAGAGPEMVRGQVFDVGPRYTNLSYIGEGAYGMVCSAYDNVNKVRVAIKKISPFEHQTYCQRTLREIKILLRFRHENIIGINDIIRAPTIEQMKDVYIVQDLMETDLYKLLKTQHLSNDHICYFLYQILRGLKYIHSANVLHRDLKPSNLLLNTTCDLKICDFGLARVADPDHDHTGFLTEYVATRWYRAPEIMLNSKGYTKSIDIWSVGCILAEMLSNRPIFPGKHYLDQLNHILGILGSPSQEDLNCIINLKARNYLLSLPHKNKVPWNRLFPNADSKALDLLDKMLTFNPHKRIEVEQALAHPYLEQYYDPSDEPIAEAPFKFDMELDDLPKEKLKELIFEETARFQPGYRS

[5] = target: Mitogen-activated protein kinase 14 (Homo sapiens, UniProt Q16539); assay: Inhibition of recombinant p38alpha after 60 mins by TR-FRET assay
Mitogen-activated protein kinase 14, sequence (Q16539 whole entry): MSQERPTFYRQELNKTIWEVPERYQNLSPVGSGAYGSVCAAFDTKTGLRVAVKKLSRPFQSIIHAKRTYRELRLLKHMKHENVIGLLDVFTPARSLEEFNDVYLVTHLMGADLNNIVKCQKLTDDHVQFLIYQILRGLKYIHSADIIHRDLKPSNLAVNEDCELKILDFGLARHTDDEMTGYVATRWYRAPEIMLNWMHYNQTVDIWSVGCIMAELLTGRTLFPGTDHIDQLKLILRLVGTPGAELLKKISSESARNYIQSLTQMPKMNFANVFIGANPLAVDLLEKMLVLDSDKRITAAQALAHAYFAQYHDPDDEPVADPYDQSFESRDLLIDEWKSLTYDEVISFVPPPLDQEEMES

[6] = Apparent permeability of the compound from apical to basolateral direction in MDCK2 cells at 5 uM after 120 mins; format: ADME, cell-based, Canis lupus familiaris, MDCK-II; conditions: dog, MDCK
[7] = Oxidative metabolic stability in mouse liver microsomes assessed as compound remaining at 2 uM after 30 mins; format: ADME, Microsome; conditions: read-out: Stability
[8] = Oxidative metabolic stability in human liver microsomes assessed as compound remaining at 2 uM after 30 mins; format: ADME, Microsome; conditions: read-out: Stability
[9] = Efflux ratio, ratio of permeability from apical to basolateral in MDCK2 cells over expressing MDR1 in presence of P-gp inhibitor to permeability from apical to basolateral in MDCK2 cells over expressing MDR1 in absence of P-gp inhibitor at 5 uM after 120 mins; format: ADME, cell-based, Canis lupus familiaris; conditions: dog, mdck-ii, 2 h

Mitogen-activated protein kinase 10, sequence (P53779 whole entry): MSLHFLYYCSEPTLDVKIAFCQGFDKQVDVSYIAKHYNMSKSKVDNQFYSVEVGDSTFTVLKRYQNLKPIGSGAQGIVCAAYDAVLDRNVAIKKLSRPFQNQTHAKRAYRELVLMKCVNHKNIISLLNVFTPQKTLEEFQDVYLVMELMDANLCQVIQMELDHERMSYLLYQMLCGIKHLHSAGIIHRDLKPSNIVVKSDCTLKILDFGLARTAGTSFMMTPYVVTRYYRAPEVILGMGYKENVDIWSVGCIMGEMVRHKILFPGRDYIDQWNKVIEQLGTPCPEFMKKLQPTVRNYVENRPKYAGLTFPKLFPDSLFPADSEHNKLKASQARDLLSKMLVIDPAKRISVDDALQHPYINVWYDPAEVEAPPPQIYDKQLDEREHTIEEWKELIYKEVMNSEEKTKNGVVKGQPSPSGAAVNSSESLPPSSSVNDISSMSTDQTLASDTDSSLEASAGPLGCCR
Mitogen-activated protein kinase 8, sequence (P45983 whole entry): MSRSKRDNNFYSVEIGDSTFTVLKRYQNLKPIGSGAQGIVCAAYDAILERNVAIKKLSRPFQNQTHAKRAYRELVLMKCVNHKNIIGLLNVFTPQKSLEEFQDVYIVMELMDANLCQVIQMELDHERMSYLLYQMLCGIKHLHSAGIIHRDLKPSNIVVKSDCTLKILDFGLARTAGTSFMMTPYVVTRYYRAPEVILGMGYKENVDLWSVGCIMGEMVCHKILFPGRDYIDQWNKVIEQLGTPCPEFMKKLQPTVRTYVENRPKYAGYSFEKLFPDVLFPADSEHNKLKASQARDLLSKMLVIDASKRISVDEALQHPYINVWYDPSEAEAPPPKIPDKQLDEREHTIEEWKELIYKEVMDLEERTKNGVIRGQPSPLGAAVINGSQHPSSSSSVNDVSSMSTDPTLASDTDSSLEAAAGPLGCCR
Mitogen-activated protein kinase 9, sequence (P45984 whole entry): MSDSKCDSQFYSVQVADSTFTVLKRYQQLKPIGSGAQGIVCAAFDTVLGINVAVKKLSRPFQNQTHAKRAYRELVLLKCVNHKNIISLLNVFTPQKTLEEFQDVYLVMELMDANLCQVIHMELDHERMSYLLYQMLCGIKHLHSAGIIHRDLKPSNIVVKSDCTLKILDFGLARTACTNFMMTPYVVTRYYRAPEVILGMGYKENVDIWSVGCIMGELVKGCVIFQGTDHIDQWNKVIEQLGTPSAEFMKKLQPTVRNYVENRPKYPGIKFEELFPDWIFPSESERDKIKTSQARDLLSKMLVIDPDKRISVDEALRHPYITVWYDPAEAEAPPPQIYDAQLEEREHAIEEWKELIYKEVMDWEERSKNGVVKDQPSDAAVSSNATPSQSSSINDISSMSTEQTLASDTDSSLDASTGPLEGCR

## O=c1[nH]nc(-c2ccnc(NC3CCCC3)c2)n1-c1ccc2ccccc2c1
[1]
  IC50: 130 nM
[2]
  IC50: 350 nM
[3]
  IC50: > 50000 nM
[4]
  IC50: > 50000 nM
[5]
  IC50: > 50000 nM

## O=c1[nH]nc(-c2ccnc(Nc3nccs3)c2)n1-c1ccc2ccccc2c1
[1]
  IC50: 210 nM
[2]
  IC50: 650 nM
[3]
  IC50: > 50000 nM
[4]
  IC50: > 50000 nM
[5]
  IC50: > 50000 nM

## O=c1[nH]nc(-c2ccnc(Nc3ccccn3)c2)n1-c1ccc2ccccc2c1
[1]
  IC50: 40 nM
[2]
  IC50: 110 nM
[3]
  IC50: 2200 nM
[4]
  IC50: > 50000 nM
[5]
  IC50: > 50000 nM

## O=c1[nH]nc(-c2ccnc(NC3CCOCC3)c2)n1-c1ccc2cccc(F)c2c1
[1]
  IC50: 54 nM
[2]
  IC50: 380 nM
[3]
  IC50: > 500 nM
[4]
  IC50: > 50000 nM
[5]
  IC50: > 50000 nM

## O=c1[nH]nc(-c2ccnc(NC3CCOCC3)c2)n1-c1ccc2cc(Br)ccc2c1
[1]
  IC50: 430 nM
[2]
  IC50: 780 nM
[3]
  IC50: 4200 nM
[4]
  IC50: > 50000 nM
[5]
  IC50: > 50000 nM

## O=c1[nH]nc(-c2ccncc2)n1-c1ccc2ccccc2c1
[1]
  IC50: 16000 nM
[2]
  IC50: 32000 nM
[3]
  IC50: > 50000 nM
[4]
  IC50: > 50000 nM
[5]
  IC50: > 50000 nM

## C[C@H](Nc1cc(-c2n[nH]c(=O)n2-c2ccc3ccccc3c2)ccn1)c1ccccc1
[1]
  IC50: 3900 nM
[2]
  IC50: > 5000 nM
[3]
  IC50: > 5000 nM
[4]
  IC50: > 5000 nM
[5]
  IC50: > 5000 nM

## CC(=O)Nc1cc(-c2n[nH]c(=O)n2-c2ccc3ccccc3c2)ccn1
[1]
  IC50: 410 nM
[2]
  IC50: 1500 nM
[3]
  IC50: 7200 nM
[4]
  IC50: > 50000 nM
[5]
  IC50: > 50000 nM

## Nc1ccc2cc(-n3c(-c4ccnc(NC5CCOCC5)c4)n[nH]c3=O)ccc2c1
[1]
  IC50: 950 nM
[2]
  IC50: 5300 nM
[3]
  IC50: 1700 nM
[4]
  IC50: > 50000 nM
[5]
  IC50: > 50000 nM

## O=c1[nH]nc(-c2ccnc(NC3CCOCC3)c2)n1-c1ccc2cccc(Cl)c2c1
[1]
  IC50: 14 nM
[2]
  IC50: 150 nM
[3]
  IC50: 110 nM

## COC(=O)N1CCC(n2nc(-c3ccnc(NC4CCOCC4)c3)n(-c3ccc4ccccc4c3)c2=O)CC1
[1]
  IC50: 24 nM
[2]
  IC50: 58 nM
[3]
  IC50: 360 nM
[4]
  IC50: > 5000 nM
[5]
  IC50: > 50000 nM

## O=c1[nH]nc(-c2ccnc(NC3CCOCC3)c2)n1-c1ccc2cc(F)ccc2c1
[1]
  IC50: 70 nM
[2]
  IC50: 190 nM
[3]
  IC50: 740 nM
[4]
  IC50: > 50000 nM
[5]
  IC50: > 50000 nM
[6]
  Papp A→B at 2 h, 5 µM: 7.3 ×10⁻⁶ cm/s
[7]
  remaining at 0.5 h, 2 µM: 100%
[8]
  remaining at 0.5 h, 2 µM: 88%

## O=c1[nH]nc(-c2ccnc(Nc3ccccc3)c2)n1-c1ccc2ccccc2c1
[1]
  IC50: 61 nM
[2]
  IC50: 470 nM
[3]
  IC50: 5700 nM
[4]
  IC50: > 50000 nM
[5]
  IC50: > 50000 nM

## O=c1n(C2CCOC2)nc(-c2ccnc(NC3CCOCC3)c2)n1-c1ccc2ccccc2c1 (stereo not given)
[1]
  IC50: 92 nM
[2]
  IC50: 320 nM
[3]
  IC50: 3800 nM
[4]
  IC50: > 50000 nM
[5]
  IC50: > 50000 nM
[6]
  Papp A→B at 2 h, 5 µM: 21.8 ×10⁻⁶ cm/s
[9]
  Ratio: 1.6
[7]
  remaining at 0.5 h, 2 µM: 1.6%
[8]
  remaining at 0.5 h, 2 µM: 27%

## O=C(Nc1cc(-c2n[nH]c(=O)n2-c2ccc3ccccc3c2)ccn1)c1ccccc1
[1]
  IC50: 590 nM
[2]
  IC50: 4400 nM
[3]
  IC50: > 50000 nM
[4]
  IC50: > 50000 nM
[5]
  IC50: > 50000 nM

## O=c1[nH]nc(-c2ccnc(NC3CCC3)c2)n1-c1ccc2ccccc2c1
[1]
  IC50: 70 nM
[2]
  IC50: 220 nM
[3]
  IC50: 1800 nM
[4]
  IC50: > 50000 nM
[5]
  IC50: > 50000 nM

## O=c1n(C2CCN(CC(F)(F)F)CC2)nc(-c2ccnc(NC3CCOCC3)c2)n1-c1ccc2ccccc2c1
[1]
  IC50: 36 nM
[2]
  IC50: 170 nM
[3]
  IC50: 900 nM

## Nc1cccc2ccc(-n3c(-c4ccnc(NC5CCOCC5)c4)n[nH]c3=O)cc12
[1]
  IC50: 94 nM
[2]
  IC50: 570 nM
[3]
  IC50: 2600 nM
[4]
  IC50: > 50000 nM
[5]
  IC50: > 50000 nM

## O=c1n(C2CCNCC2)nc(-c2ccnc(NC3CCOCC3)c2)n1-c1ccc2ccccc2c1
[1]
  IC50: 160 nM
[2]
  IC50: 530 nM
[3]
  IC50: 4500 nM
[4]
  IC50: > 5000 nM
[5]
  IC50: > 50000 nM

## O=c1[nH]nc(-c2ccnc(Nc3cccnc3)c2)n1-c1ccc2ccccc2c1
[1]
  IC50: 250 nM
[2]
  IC50: 950 nM
[3]
  IC50: 3300 nM
[4]
  IC50: 14000 nM
[5]
  IC50: > 50000 nM

## CCN1CCC(n2nc(-c3ccnc(NC4CCOCC4)c3)n(-c3ccc4ccccc4c3)c2=O)CC1
[1]
  IC50: 280 nM
[2]
  IC50: 2000 nM
[3]
  IC50: > 5000 nM

## O=C(Nc1cc(-c2n[nH]c(=O)n2-c2ccc3ccccc3c2)ccn1)C1CC1
[1]
  IC50: 120 nM
[2]
  IC50: 440 nM
[3]
  IC50: 4600 nM
[4]
  IC50: > 50000 nM
[5]
  IC50: > 50000 nM

## O=c1n(-c2ccccn2)nc(-c2ccnc(NC3CCOCC3)c2)n1-c1ccc2ccccc2c1
[1]
  IC50: 100 nM
[2]
  IC50: 150 nM
[3]
  IC50: 1400 nM
[4]
  IC50: > 50000 nM
[5]
  IC50: > 50000 nM
[6]
  Papp A→B at 2 h, 5 µM: 5.1 ×10⁻⁶ cm/s
[9]
  Ratio: 1.5
[7]
  remaining at 0.5 h, 2 µM: 1.5%
[8]
  remaining at 0.5 h, 2 µM: 59%

## O=c1n(CC2CCOCC2)nc(-c2ccnc(NC3CCCCC3)c2)n1-c1ccc2ccccc2c1
[1]
  IC50: 22 nM
[2]
  IC50: 61 nM
[3]
  IC50: 420 nM
[4]
  IC50: > 50000 nM
[5]
  IC50: > 50000 nM

## O=c1[nH]nc(-c2ccnc(NC3CC3)c2)n1-c1ccc2ccccc2c1
[1]
  IC50: 130 nM
[2]
  IC50: 390 nM
[3]
  IC50: 3900 nM
[4]
  IC50: > 50000 nM
[5]
  IC50: > 50000 nM

— ChEMBL document CHEMBL1641539 (Bioorg Med Chem Lett, 2011)
